Consider one compound from patent US6211212A, “Pyrrolidine and thiazole derivatives with metallo-beta-lactamase inhibitory properties” (SmithKline Beecham p.l.c., priority 1997, dated 2001).

SMILES strings stand for the structures. Some results are limits rather than exact numbers.

For the assay, the target named is B.fragilis CfiA metallo-β-lactamase (Bacteroides fragilis, UniProt P25910). In words: I50 screen (nitrocefin reporter substrate). The format is biochemical. Conditions: 25 μM PIPES pH 7, 37° C., nitrocefin 91 μM, 5 minute preincubation, Zn2+ 100 μM. As to the method:
The inhibitory activity of the compounds of the invention was measured in 25 μM PIPES pH 7 buffer at 10 concentrations (1000, 333, 111, 37, 12.3, 4.1, 1.4, 0.46, 0.15 and 0.05 μM) at 37° C. using nitrocefin (91 μM final concentration) as the reporter substrate. The assays were performed with a 5 minute preincubation of enzyme and inhibitor and were conducted in the presence of added zinc sulphate (Zn^2+ 100 μM, final concentration). The methodology is described in detail in the following references: Payne et al (1991), J. Antimicrob. Chemother., 28:255; Payne et al (1994), Antimicrob. Agents and Chemother., 38:767.

Sequence of B.fragilis CfiA metallo-β-lactamase (P25910 19-249): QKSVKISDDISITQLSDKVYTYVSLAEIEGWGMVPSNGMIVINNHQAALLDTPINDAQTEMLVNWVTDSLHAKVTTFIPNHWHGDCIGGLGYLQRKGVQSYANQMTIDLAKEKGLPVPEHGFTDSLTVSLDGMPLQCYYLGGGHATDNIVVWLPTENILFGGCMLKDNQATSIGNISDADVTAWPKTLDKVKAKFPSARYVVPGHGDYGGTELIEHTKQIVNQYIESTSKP

A word on the IC50: it is the concentration at which inhibition is half-maximal. `O=C(N[C@@H](C(=O)O)c1ccccc1)[C@H]1CCCC[C@H]1S` (mixture of isomers) [Example E3, N-[2-(R,S)-Mercapto-1-(R,S)-cyclohexancarbonyl]-D-phenylglycine]: the IC50 is under 1 µM.
